Among the data in US11572337B2, “Antibacterial agents: arylalkylcarboxamido phloroglucinols” (Rutgers, The State University of New Jersey, priority 2018, dated 2023) are MIC and IC50 values, retold here.

≈ marks a conversion by molar mass, not a printed value.

For assay [1], the system named is Staphylococcus aureus ATCC 12600. The assay can be described thus: Inhibition of growth of Staphylococcus aureus (spiral gradient endpoint MIC assay). The assay is classed as cell-based. Conditions: ATCC12600, Mueller-Hinton II cation-adjusted agar, 16 h at 37° C., read-out: in vitro antibacterial activity S. aureus ATCC12600 MIC. From the text: Minimum inhibitory concentrations (MICs for Staphylococcus aureus ATCC 12600 were quantified using spiral gradient endpoint assays, essentially as described [Wallace, A. and Corkill, J. (1989) Application of the spiral plating method to study antimicrobial action. J. Microbiol. Meths. 10, 303-310; Paton, J., Holt, A., and Bywater, M. (1990) Measurement of MICs of antibacterial agents by spiral gradient endpoint compared with conventional dilution methods. Int. I Exp. Clin. Chemother. 3, 31-38; Schalkowsky S. (1994) Measures of susceptibility from a spiral gradient of drug concentrations. Adv. Exp. Med. Biol. 349, 107-120]. Assays employed exponential-gradient plates containing 150 mm×4 mm Mueller-Hinton II cation-adjusted agar and 0.4-100 μg/ml of test salt. Plates were prepared using an Autoplate 4000 spiral plater (Spiral Biotech, Inc.). Saturated overnight cultures were swabbed radially onto plates, and plates were incubated for 16 h at 37° C. For each culture, the streak length was measured using a clear plastic template (Spiral Biotech, Inc.), the test-salt concentration at the streak endpoint was calculated using the program SGE (Spiral Biotech, Inc.), and the MIC was defined as the calculated test-salt concentration at the streak endpoint.

In assay [2] the target is S. aureus RNA polymerase core enzyme + S. aureus σA (Staphylococcus aureus (strain NCTC 8325 / PS 47), UniProt P47768+Q2G0N5). Put plainly: Fluorescence-detected assay of inhibition of Staphylococcus aureus RNA polymerase. The assay is classed as biochemical. Conditions: T4 N25 promoter DNA, RiboGreen fluorescence, read-out: RNAP-inhibitory activity S. aureus RNAP IC50. The method, then: (§1) Fluorescence-detected RNA polymerase assays with E. coli RNA polymerase were performed by a modification of the procedure of Kuhlman et al., 2004 [Kuhlman, P., Duff, H. & Galant, A. (2004) A fluorescence-based assay for multisubunit DNA-dependent RNA polymerases. Anal. Biochem. 324, 183-190]. Reaction mixtures contained […]: […] test salt, 75 nM E. coli RNA polymerase σ^70 holoenzyme, 20 nM 384 bp DNA fragment containing the bacteriophage T4 N25 promoter, 100 μM ATP, 100 μM GTP, 100 μM UTP, 100 μM CTP, 50 mM Tris-HCl, pH 8.0, 100 mM KCl, 10 mM MgCl2, 1 mM DTT, 10 μg/ml bovine serum albumin, and 5.5% glycerol. Reaction components other than DNA and NTPs were pre-incubated for 10 min at 37° C. Reactions were carried out by addition of DNA and incubation for 5 min at 37° C., followed by addition of NTPs and incubation for 60 min at 37° C. DNA was removed by addition of 1 μl 5 mM CaCl2 and 2 U DNaseI (Ambion, Inc.), followed by incubation for 90 min at 37° C. RNA was quantified by addition of 100 μI RiboGreen RNA Quantitation Reagent (Invitrogen, Inc.; 1:500 dilution in Tris-HCl, pH 8.0, 1 mM EDTA), followed by incubation for 10 min at 25° C., followed by measurement of fluorescence intensity [excitation wavelength=485 nm and emission wavelength=535 nm; QuantaMaster QM1 spectrofluorometer (PTI, Inc.)]. IC50 is defined as the concentration of inhibitor resulting in 50% inhibition of RNA polymerase activity.
Fluorescence-detected RNA polymerase assays with S. aureus RNA polymerase were performed as in Example 2.1, using reaction mixtures containing (20 μl): 0-100 nM test salt, 75 nM S. aureus RNA polymerase core enzyme, 300 nM S. aureus σ^A, 20 nM 384 bp DNA fragment containing the bacteriophage T4 N25 promoter, 100 μM ATP, 100 μM GTP, 100 μM UTP, 100 μM CTP, 40 mM Tris-HCl, pH 8.0, 80 mM NaCl, 5 mM MgCl2, 2.5 mM DTT, and 12.7% glycerol. IC50 is defined as the concentration of inhibitor resulting in 50% inhibition of RNA polymerase activity.

Assay [3] has as its target E. coli RNA polymerase σ70 holoenzyme (Escherichia coli (strain K12), UniProt P0A8T7+P0A8V2). The assay can be described thus: Fluorescence-detected assay of inhibition of Escherichia coli RNA polymerase. Conditions: T4 N25 promoter DNA, RiboGreen fluorescence, read-out: RNAP-inhibitory activity E. coli RNAP IC50. In kind it is biochemical. As to the method: as §1

For orientation: MIC means the lowest concentration found to suppress growth. Broadly, the IC50 is the concentration that gives 50% inhibition. Take `O=C(NCc1ccc(Cl)cc1)c1c(O)cc(O)cc1O` [Compound 0MTK107, N-(4-chlorobenzyl)-2,4,6-trihydroxybenzamide]: the MIC in assay [1] was greater than 40 µg/mL. Further, the IC50 in assay [2] was 2 µM; in assay [3], 400 nM.

With `O=C(NCCc1ccc(Cl)cc1)c1c(O)cc(O)cc1O` [Compound 0MTK127, N-(4-chlorophenethyl)-2,4,6-trihydroxybenzamide], the MIC in assay [1] stood at 20 µg/mL (≈ 65 µM). Moreover, the IC50 in assay [2] was found to be 1.5 µM; in assay [3] it was 370 nM.

`CN(CCc1ccc(Cl)cc1)C(=O)c1c(O)cc(O)cc1O` [Compound 0MTK128, N-(4-chlorophenethyl)-2,4,6-trihydroxy-N-methylbenzamide]: the MIC in assay [1] was greater than 20 µg/mL. Moreover, the IC50 in assay [2] is greater than 100 µM; in assay [3] it was 970 nM.

With `CC(C)(CNC(=O)c1c(O)cc(O)cc1O)c1ccc(Cl)cc1` [Compound 0MTK146, N-(2-(4-chlorophenyl)-2-methylpropyl)-2,4,6-trihydroxybenzamide], in assay [1], the MIC worked out at 22 µg/mL (≈ 65.5 µM). In addition, the values for the IC50 in assay [2] and in assay [3] were 2.7 µM and 690 nM, respectively.

Consider `COc1ccc(Oc2ccc(CCNC(=O)c3c(O)cc(O)cc3O)cc2)cc1` [Compound 0MTK260, 2,4,6-trihydroxy-N-(4-(4-methoxyphenoxy)phenethyl)benzamide], for which the IC50 is 6.2 µM in assay [2] and 780 nM in assay [3].

Turning to `O=C(NCCc1ccc(Oc2ccc(N3CCOCC3)cc2)cc1)c1c(O)cc(O)cc1O` [Compound 0MTK261, 2,4,6-trihydroxy-N-(4-(4-morpholinophenoxy)phenethyl)benzamide], the IC50 came out at 7.5 µM in assay [2] and 1500 nM in assay [3].

Consider `O=C(NCCc1ccc(Oc2cncnc2)cc1)c1c(O)cc(O)cc1O` [Compound 0MTK262, 2,4,6-trihydroxy-N-(4-(pyrimidin-5-yloxy)phenethyl)benzamide], for which the IC50 in assay [2] turned out to be 7.4 µM; in assay [3] it was 1500 nM.

For `O=C(NCCc1ccc(Oc2cccc(N3CCOCC3)c2)cc1)c1c(O)cc(O)cc1O` [Compound 0MTK263, 2,4,6-trihydroxy-N-(4-(3-morpholinophenoxy)phenethyl)benzamide], the IC50 turned out to be 7.1 µM in assay [2] and 1300 nM in assay [3].

As for `O=C(NCCc1ccc(Oc2cccnc2)cc1)c1c(O)cc(O)cc1O` [Compound 0MTK264, 2,4,6-trihydroxy-N-(4-(pyridin-3-yloxy)phenethyl)benzamide], the IC50 is 3.8 µM in assay [2] and 820 nM in assay [3].

Consider `O=C(NCCc1ccc(Oc2ccncc2)cc1)c1c(O)cc(O)cc1O` [Compound 0MTK265, 2,4,6-trihydroxy-N-(4-(pyridin-4-yloxy)phenethyl)benzamide], for which the IC50 stood at 6.4 µM in assay [2] and 1300 nM in assay [3].

As to `O=C(NCCc1ccc(Oc2ccc(-c3ccncc3)cc2)cc1)c1c(O)cc(O)cc1O` [Compound 0MTK266, 2,4,6-trihydroxy-N-(4-(4-(pyridin-4-yl)phenoxy)phenethyl)benzamide], the results for the IC50 in assay [2] and in assay [3] were 5.1 µM and 1200 nM, respectively.

For the compound `O=C(NCCc1ccc(Oc2ccc(-c3cccnc3)cc2)cc1)c1c(O)cc(O)cc1O` [Compound 0MTK267, 2,4,6-trihydroxy-N-(4-(4-(pyridin-3-yl)phenoxy)phenethyl)benzamide], the figures for the IC50 in assay [2] and in assay [3] were 1.7 µM and 300 nM, respectively.

With `O=C(NC1CC1)c1cccc(Oc2ccc(CCNC(=O)c3c(O)cc(O)cc3O)cc2)c1` [Compound 0MTK268, N-(4-(3-(cyclopropylcarbamoyl)phenoxy)phenethyl)-2,4,6-trihydroxybenzamide], the figures for the IC50 in assay [2] and in assay [3] were 2.9 µM and 800 nM, respectively.

For the compound `O=C(NCCc1ccc(Oc2cccc(-c3ccncc3)c2)cc1)c1c(O)cc(O)cc1O` [Compound 0MTK269, 2,4,6-trihydroxy-N-(4-(3-(pyridin-4-yl)phenoxy)phenethyl)benzamide], the values for the IC50 in assay [2] and in assay [3] were 3 µM and 700 nM, respectively.
